Results reported in the Kinase Knowledgebase extract (Sharma et al. 2016).

The molecules below were run against CDK2 (human) (UniProt P24941) (assay: Enzyme Assay). Settings: not given.
In the case of `CCN(CC)CCCNC(=O)c1c(C)[nH]c(/C=C2\C(=O)Nc3ccc(Br)cc32)c1-c1ccccc1`, the IC50 is reported as greater than 20 µM.

The molecules below were run against EGFR (human) (UniProt P00533) (assay: not given). Settings: not given.
Chain of EGFR (human) (P00533 whole entry, looked up): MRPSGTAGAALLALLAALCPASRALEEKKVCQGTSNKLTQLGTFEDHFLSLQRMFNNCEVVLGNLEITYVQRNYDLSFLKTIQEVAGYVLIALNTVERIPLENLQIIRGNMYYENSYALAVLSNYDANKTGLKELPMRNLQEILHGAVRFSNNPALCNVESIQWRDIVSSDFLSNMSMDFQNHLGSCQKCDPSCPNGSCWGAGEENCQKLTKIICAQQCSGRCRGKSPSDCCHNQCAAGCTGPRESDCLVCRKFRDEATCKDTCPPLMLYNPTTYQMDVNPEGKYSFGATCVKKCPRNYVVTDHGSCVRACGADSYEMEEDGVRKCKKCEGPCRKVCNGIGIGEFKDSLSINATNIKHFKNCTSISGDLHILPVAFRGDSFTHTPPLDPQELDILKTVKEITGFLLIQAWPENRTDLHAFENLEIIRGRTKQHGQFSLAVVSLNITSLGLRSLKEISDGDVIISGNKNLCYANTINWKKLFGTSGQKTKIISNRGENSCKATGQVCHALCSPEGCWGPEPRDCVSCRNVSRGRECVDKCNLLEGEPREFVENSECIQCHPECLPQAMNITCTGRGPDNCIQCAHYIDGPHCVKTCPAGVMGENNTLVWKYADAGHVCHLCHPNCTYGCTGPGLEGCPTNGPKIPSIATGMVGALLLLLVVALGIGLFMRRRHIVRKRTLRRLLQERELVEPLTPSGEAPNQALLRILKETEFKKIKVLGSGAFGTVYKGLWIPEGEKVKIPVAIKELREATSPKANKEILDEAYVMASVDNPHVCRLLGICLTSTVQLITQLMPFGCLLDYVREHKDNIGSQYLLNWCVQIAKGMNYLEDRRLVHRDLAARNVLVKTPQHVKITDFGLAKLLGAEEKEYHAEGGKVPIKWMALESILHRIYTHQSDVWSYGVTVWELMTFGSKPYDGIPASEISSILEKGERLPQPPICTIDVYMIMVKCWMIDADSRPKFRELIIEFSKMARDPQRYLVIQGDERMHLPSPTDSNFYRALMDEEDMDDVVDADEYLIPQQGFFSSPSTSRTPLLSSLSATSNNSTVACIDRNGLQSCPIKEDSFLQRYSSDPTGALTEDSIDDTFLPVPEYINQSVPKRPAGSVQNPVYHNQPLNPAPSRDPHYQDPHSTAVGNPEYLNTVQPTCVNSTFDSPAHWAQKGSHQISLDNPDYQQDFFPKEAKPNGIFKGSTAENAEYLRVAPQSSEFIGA
`Cc1[nH]c(/C=C2\C(=O)Nc3ccc(S(=O)(=O)N(C)C)cc32)c(C)c1C(=O)NCCN1CCCC1` gave an IC50 greater than 100 µM. `Cc1[nH]c(/C=C2\C(=O)Nc3ccc(Cl)cc32)c(C)c1C(=O)NCCN(C)C` gave an IC50 greater than 100 µM. `CCN(CC)CCNC(=O)c1c(C(C)C)[nH]c(/C=C2\C(=O)Nc3ccc(Br)cc32)c1C(C)C` gave an IC50 greater than 100 µM. `CCN(CC)CCCNC(=O)c1c(C)[nH]c(/C=C2\C(=O)Nc3cc(-c4ccccc4)ccc32)c1C` gave an IC50 greater than 100 µM. `CCOC(=O)CNC(=O)c1c[nH]c(/C=C2\C(=O)Nc3ccc(S(=O)(=O)NC)c(C)c32)c1C` gave an IC50 greater than 100 µM. With `COc1ccccc1-c1ccc2c(c1)NC(=O)/C2=C\c1[nH]c(C)c(C(=O)NCCN(C)C)c1-c1ccccc1` the IC50 was greater than 100 µM. `Cc1[nH]c(/C=C2\C(=O)Nc3cc(-c4ccccc4)ccc32)c(C)c1C(=O)NCCN(C)C` gave an IC50 greater than 100 µM. Work on `CCOC(=O)CNC(=O)c1c[nH]c(/C=C2\C(=O)Nc3ccc(S(=O)(=O)NC)cc32)c1C` yielded an IC50 greater than 100 µM. `CNS(=O)(=O)c1ccc2c(c1)/C(=C/c1[nH]cc(C(=O)O)c1C)C(=O)N2` was tested, and the IC50 was greater than 100 µM. In the case of `CCN(CC)CCNC(=O)c1c(C)[nH]c(/C=C2\C(=O)Nc3ccc(S(=O)(=O)N(C)C)cc32)c1C`, the IC50 is reported as greater than 100 µM. Work on `CCN(CC)CCNC(=O)c1c(C)[nH]c(/C=C2\C(=O)Nc3cc(-c4cc(Cl)cc(Cl)c4)ccc32)c1C` yielded an IC50 greater than 100 µM. For `CCN(CC)CCCNC(=O)c1[nH]c(/C=C2\C(=O)Nc3cc(OC)ccc32)cc1C`, the IC50 was greater than 100 µM. `CCN(CC)CCCNC(=O)c1c(C)[nH]c(/C=C2\C(=O)Nc3cccc(C(=O)Nc4ccc(OC)c(Cl)c4)c32)c1C` showed an IC50 greater than 100 µM. With `CNS(=O)(=O)c1ccc2c(c1)/C(=C/c1[nH]cc(C(=O)NCC(=O)O)c1C)C(=O)N2` the IC50 was greater than 100 µM. Work on `Cc1c(C(=O)NCCCN2CCOCC2)[nH]c(/C=C2\C(=O)Nc3ccc(Br)cc32)c1C(=O)c1ccccc1` yielded an IC50 greater than 100 µM. Work on `CCN(CC)CCCNC(=O)c1[nH]c(/C=C2\C(=O)Nc3ccc(OC)cc32)cc1C` yielded an IC50 greater than 100 µM. `COc1ccccc1-c1ccc2c(c1)NC(=O)/C2=C\c1[nH]c(C)c(C(=O)NCCN2CCCC2)c1-c1ccccc1` gave an IC50 greater than 100 µM. Work on `Cc1[nH]c(/C=C2\C(=O)Nc3ccc(-c4ccccc4)cc32)c(C)c1C(=O)NCCCn1ccnc1` yielded an IC50 greater than 100 µM.

Each molecule was assayed against EGFR (murine) (UniProt P00533) (assay: not given). Settings: nih3t3/c7.
Chain of EGFR (murine) (P00533 whole entry, looked up): as above
`CCN(CC)CCNC(=O)c1c(C)[nH]c(/C=C2\C(=O)Nc3cc(-c4ccccc4)ccc32)c1C` showed an IC50 greater than 100 µM. With `CCN(CC)CCNC(=O)c1c(C)[nH]c(/C=C2\C(=O)Nc3cc(-c4cccnc4)ccc32)c1C` the IC50 was greater than 100 µM. In the case of `CCOC(=O)c1cc(C)c(/C=C2\C(=O)Nc3ccc(Cl)cc32)[nH]1`, the IC50 is reported as greater than 100 µM. Work on `COC(=O)c1cc(C)c(/C=C2\C(=O)Nc3ccccc32)[nH]1` yielded an IC50 greater than 100 µM. Work on `CCOC(=O)c1c(C)[nH]c(/C=C2\C(=O)Nc3ccc(Br)cc32)c1-c1ccccc1` yielded an IC50 greater than 100 µM. Work on `Cc1cc(C(=O)O)[nH]c1/C=C1\C(=O)Nc2ccc(Cl)cc21` yielded an IC50 greater than 100 µM. In the case of `Cc1cc(C(=O)O)[nH]c1/C=C1\C(=O)N(C)c2ccccc21`, the IC50 is reported as greater than 100 µM. In the case of `CCN(CC)CCNC(=O)c1ccc(/C=C2\C(=O)Nc3cc(-c4ccccc4)ccc32)[nH]1`, the IC50 is reported as greater than 100 µM. `Cc1[nH]c(/C=C2\C(=O)Nc3ccc(Br)cc32)c(C)c1C(=O)NCCN1CCCC1` was tested, and the IC50 was greater than 100 µM. With `Cc1[nH]c(/C=C2\C(=O)Nc3cc(-c4ccccc4)ccc32)c(C)c1C(=O)NCCCn1ccnc1` the IC50 was greater than 100 µM. `Cc1[nH]c(/C=C2\C(=O)Nc3cc(-c4cccnc4)ccc32)c(C)c1C(=O)NCCN1CCCC1` gave an IC50 greater than 100 µM. `Cc1[nH]c(/C=C2\C(=O)Nc3cc(-c4ccccc4)ccc32)c(C)c1C(=O)NCCN1CCCC1` showed an IC50 greater than 100 µM. `CCN(CC)CCNC(=O)c1c(C)[nH]c(/C=C2\C(=O)Nc3cc(-c4cc(Cl)cc(Cl)c4)ccc32)c1C` gave an IC50 greater than 100 µM. For `CCN(CC)CCN(C)C(=O)c1ccc(/C=C2\C(=O)Nc3cc(-c4ccccc4)ccc32)[nH]1`, the IC50 was greater than 100 µM. `Cc1[nH]c(/C=C2\C(=O)Nc3ccc(Br)cc32)c(C)c1C(=O)NCCCn1ccnc1` was tested, and the IC50 was greater than 100 µM. For `Cc1cc(C(=O)O)[nH]c1/C=C1\C(=O)Nc2ccccc21`, the IC50 was greater than 100 µM. In the case of `Cc1[nH]c(/C=C2\C(=O)Nc3ccc(-c4ccccc4)cc32)c(C)c1C(=O)NCCCn1ccnc1`, the IC50 is reported as greater than 100 µM.
